Test results taken from patent US10005767B2, “Compositions and methods for inhibition of the JAK pathway” (Rigel Pharmaceuticals, Inc., priority 2009, dated 2018).
Where a name gives a salt, the structure may show the parent alone. Read-outs that look alike come from different tables or passages of the source.

System: human primary T-cells, IL-2 stimulated proliferation (JAK-1 and JAK-3 dependent; reported as JAK3 activity)
Assay: Human primary T-cell proliferation stimulated by IL-2 (Example 3)
Assay type: cell-based
Conditions: tested under conditions described in Example 3 (IL-2 stimulated human primary T-cell proliferation), read-out: ability to inhibit JAK3 activity, IC50 range (Table V)
How it was run: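 Peripheral-blood human T-cells pre-activated via TCR/CD28, IL-2-starved overnight, then cultured 72 h at 37 °C with compound in Yssel's medium containing IL-2 (80 U/mL in cell suspension). Proliferation read as viable-cell ATP by CellTiter-Glo luminescence; reduction versus control taken as JAK pathway inhibition.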

## Cc1cnc(Nc2c(C)cccc2C)nc1Nc1ccc2oc(=O)[nH]c2c1 [IV-60, 5-(2-(2,6-dimethylphenylamino)-5-methylpyrimidin-4-ylamino)benzo[d]oxazol-2(3H)-one]
Homo sapiens, T-cell
  IC50: 5 to 10 µM

## Cc1cc(C)c(Nc2ncc(C)c(Nc3ccc4oc(=O)[nH]c4c3)n2)c(C)c1 [IV-61, 5-[5-Methyl-2-(2,4,6-trimethyl-phenylamino)-pyrimidin-4-ylamino]-3H-benzooxazol-2-one]
Homo sapiens, T-cell
  IC50: > 10 µM

## Cc1cnc(Nc2c(C)cccc2F)nc1Nc1ccc2oc(=O)[nH]c2c1 [IV-62, 5-(2-(2-fluoro-6-methylphenylamino)-5-methylpyrimidin-4-ylamino)benzo[d]oxazol-2(3H)-one]
Homo sapiens, T-cell
  IC50: 0.5 to 5 µM

## Cc1cnc(Nc2ccncc2F)nc1Nc1ccc2oc(=O)[nH]c2c1 [IV-63, N2-(3-fluoropyridin-4-yl)-5-methyl-N4-(2-oxo-2,3-dihydro-1,3-benzoxazol-5-yl)-2,4-pyrimidinediamine]
  IC50: 5 to 10 µM

## Cc1cnc(Nc2ccncc2F)nc1Nc1ccc2oc(=O)[nH]c2c1 [IV-64, N2-(3-fluoropyridin-4-yl)-5-methyl-N4-(2-oxo-2,3-dihydro-1,3-benzoxazol-5-yl)-2,4-pyrimidinediamine trifluoroacetic acid salt]
Trifluoroacetic acid salt
  IC50: 0.5 to 5 µM

## N4-(benzo[d]oxazol-2(3H)-on-5-yl)-N2-(2-(bicyclo[2.2.1]heptan-2-ylmethyl)isoindolin-5-yl)-5-methylpyrimidine-2,4-diamine [III-11]
  IC50: < 0.5 µM
